The values below are quoted from earlier work in patent US12377095B2, “Use of ligustrazine nitrone derivatives in treatment and prevention of diabetic complication diseases” (QINGDAO HAILAN PHARMACEUTICALS CO., LTD., priority 2019, dated 2025).

Molecules are shown by their SMILES. Where two headings read alike, the source gives them in different places.

Data set [1] deals with human renal proximal tubule cells. Conditions: cited from earlier work.
Data set [2] concerns rats with diabetic nephropathy. Conditions: rats with diabetic nephropathy induced by streptozotocin; cited from earlier work.
Data set [3] has as its system patients with type 2 diabetes with peripheral neuropathy. The following applies: cited from earlier work.
Data set [4] deals with patients with diabetic retinopathy. Conditions: electronically controlled tetramethylpyrazine ion added to puerarin injection and Zishen Jianpi Huayu Recipe; control group 67.50%; cited from earlier work.
Data set [5] relates to patients with diabetic nephropathy. The following applies: cited from earlier work.
The conditions of data set [6]: rabbit, intraperitoneal injection of tetramethylpyrazine hydrochloride; cited from earlier work.
Where [7] appears, read: combined application vs conventional treatment group.

As for `Cc1nc(C)c(C)nc1C` [tetramethylpyrazine, Tetramethylpyrazine], the “activity against sodium arsenite-induced damage” value in data set [1] is reported as “protective activity”. Further, in data set [2], the blood glucose result is “down-regulate”, the renal function entry was “significantly improve” and the urine protein exclusion result was “down-regulate”. Besides, the “total effective rate of treatment” value in data set [3] (conventional dose injection 80 mg/d) is listed as 82.93%. In data set [3] (injection 360-400 mg/d, intravenous drops, 12 d course), the “total effective rate of treatment” value is 95%. Besides, the total effective rate in data set [4] is recorded as 86.84%. In addition, in data set [5] (setting [7]), the “24 h total urine proteins” value is on record as “reduce”, the “24 h urinary albumin excretion rate” value is reported as “reduce”, the “24 h urine protein quantitation” value is on record as “reduce” and the “effect on reduction of blood urea nitrogen” value is reported as “not significant”. Moreover, in data set [5] (setting [7]), the “effect on reduction of diastolic blood pressure” value was “not significant” and the “effect on reduction of systolic blood pressure” value is listed as “not significant”. Besides, the “adverse reaction during the use” value in data set [5] (tetramethylpyrazine injection, patients with diabetic nephropathy) was “no indication of serious adverse reaction”. Besides, the “entry into retinal tissue” value in data set [6] was “can enter the retinal tissue through the blood-retinal barrier”.
